Here are results for 15 molecules from patent US7074789B2, “Kinase inhibitors” (Amgen Inc., priority 1999, dated 2006).

Holding throughout (assay type): biochemical
One assay addresses T1, Lck (Homo sapiens, UniProt P06239).
T1 construct: Kinases are expressed as either kinase domains or full length constructs; made in house
Nature of the assay: Kinase inhibition assay (33P transfer), Lck. Particulars: read-out: Lck-1. The method in brief: (§1)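 Enzyme activity is taken as the amount of 33PO4 moved from ATP onto poly(Glu, Tyr) 4:1 or poly(Arg, Ser) 3:1 fixed to the plate surface. Unbound label is removed with 0.5% phosphoric acid before scintillation counting.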

For a further assay, the target named is T2, AKT (Homo sapiens, UniProt Q9Y243).
T2 construct: Kinases are expressed as either kinase domains or full length constructs; made in house
Nature of the assay: Kinase inhibition assay (33P transfer), AKT. Particulars: Table 2, kinase inhibition class; read-out: AKT3-1. The method in brief:
as §1

In a further assay the target is T3, Zap-70 (Homo sapiens, UniProt P43403).
T3 construct: Kinases are expressed as either kinase domains or full length constructs; made in house
T3 sequence (P43403 1-619): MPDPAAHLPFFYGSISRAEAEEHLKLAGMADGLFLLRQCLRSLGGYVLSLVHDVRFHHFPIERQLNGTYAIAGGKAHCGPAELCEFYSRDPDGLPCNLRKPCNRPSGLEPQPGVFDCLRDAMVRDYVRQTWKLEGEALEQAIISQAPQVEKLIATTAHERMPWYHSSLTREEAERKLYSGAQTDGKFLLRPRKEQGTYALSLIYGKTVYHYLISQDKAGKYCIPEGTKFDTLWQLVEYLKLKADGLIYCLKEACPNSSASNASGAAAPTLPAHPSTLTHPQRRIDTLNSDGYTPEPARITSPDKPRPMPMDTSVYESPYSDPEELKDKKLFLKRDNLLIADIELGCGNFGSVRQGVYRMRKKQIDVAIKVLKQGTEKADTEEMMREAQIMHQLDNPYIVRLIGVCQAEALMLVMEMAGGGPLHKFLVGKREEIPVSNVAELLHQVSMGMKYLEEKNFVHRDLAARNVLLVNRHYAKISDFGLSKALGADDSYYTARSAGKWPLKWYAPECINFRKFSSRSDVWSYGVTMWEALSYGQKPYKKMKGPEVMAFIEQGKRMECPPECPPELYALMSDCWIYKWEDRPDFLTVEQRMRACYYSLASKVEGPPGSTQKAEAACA
Nature of the assay: Kinase inhibition assay (33P transfer), Zap-70. Particulars: read-out: Zap-1. The method in brief: as §1

The next assay concerns the target T4, Tek (Homo sapiens, UniProt Q02763).
T4 construct: Kinases are expressed as either kinase domains or full length constructs; made in house
Nature of the assay: Kinase inhibition assay (33P transfer), Tek. Particulars: read-out: Tek-1. The source says:
The inhibitor compounds described herein are screened in the following manner. Kinases suitable for use in the following protocol to determine kinase activity of the compounds described herein include, -but are not limited to: Lck, Lyn, Src, Fyn, Syk, Zap-70, Itk, Tec, Btk, EGFR, ErbB2, Kdr, Flt-1, Flt-3, Tek, c-Met, InsR, and AKT.
Kinases are expressed as either kinase domains or full length constructs fused to glutathione S-transferase (GST) or polyHistidine tagged fusion proteins in either E. colior Baculovirus-High Five expression systems. They are purified to near homogeneity by affinity chromatography essentially as previously described (Lehr et al., 1996; Gish et al., 1995). In some instances, kinases are co-expressed or mixed with purified or partially purified regulatory polypeptides prior to measurement of activity.
Kinase activity and inhibition are measured essentially by established protocols (Braunwalder et al., 1996). Briefly, The transfer of ^33PO4 from ATP to the synthetic substrates poly(Glu, Tyr) 4:1 or poly(Arg, Ser) 3:1 attached to the bioactive surface of microtiter plates serves as the basis to evaluate enzyme activity. After an incubation period, the amount of phosphate transferred is measured by first washing the plate with 0.5% phosphoric acid, adding liquid scintillant, and then counting in a liquid scintillation detector. The IC50 is determined by the concentration of compound that causes a 50% reduction in the amount of […] incorporated onto the substrate bound to the plate.

A further assay has as its target T5, Itk (Homo sapiens, UniProt Q08881).
T5 construct: Kinases are expressed as either kinase domains or full length constructs; made in house
T5 sequence (Q08881 1-620): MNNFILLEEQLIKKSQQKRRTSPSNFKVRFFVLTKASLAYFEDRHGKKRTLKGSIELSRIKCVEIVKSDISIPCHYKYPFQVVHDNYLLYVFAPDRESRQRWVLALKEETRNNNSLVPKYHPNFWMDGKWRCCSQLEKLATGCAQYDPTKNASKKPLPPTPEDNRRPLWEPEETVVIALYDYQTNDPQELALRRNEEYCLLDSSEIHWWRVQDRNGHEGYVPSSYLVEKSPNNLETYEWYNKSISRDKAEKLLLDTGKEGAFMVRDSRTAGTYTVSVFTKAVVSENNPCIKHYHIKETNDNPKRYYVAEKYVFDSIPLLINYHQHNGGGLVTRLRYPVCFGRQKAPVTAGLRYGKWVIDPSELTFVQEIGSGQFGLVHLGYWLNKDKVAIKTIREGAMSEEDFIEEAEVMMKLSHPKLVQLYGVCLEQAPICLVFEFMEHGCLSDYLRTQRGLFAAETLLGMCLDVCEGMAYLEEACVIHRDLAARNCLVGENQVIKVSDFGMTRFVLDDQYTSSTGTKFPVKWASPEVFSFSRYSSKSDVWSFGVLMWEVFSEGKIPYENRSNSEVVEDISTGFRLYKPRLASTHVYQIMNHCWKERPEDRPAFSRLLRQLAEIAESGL
Nature of the assay: Kinase inhibition assay (33P transfer), Itk. Particulars: read-out: Itk-1. The method in brief: (§2)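 Radiometric format: recombinant tagged kinase (catalytic domain or whole protein, sometimes combined with regulatory polypeptides) phosphorylates immobilised poly(Glu,Tyr) 4:1 or poly(Arg,Ser) 3:1 using [33P]ATP. Wells are washed in 0.5% phosphoric acid, then counted. IC50 is taken where substrate labelling falls by half.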

A further assay has as its target T6, EGFR (Homo sapiens, UniProt P00533).
T6 construct: Kinases are expressed as either kinase domains or full length constructs; made in house
Description: Kinase inhibition assay (33P transfer), EGFR. Particulars: Table 2, kinase inhibition class; read-out: EGFR-1. The method in brief: as §2

A further assay concerns the target T7, Kdr (Homo sapiens, UniProt P35968).
T7 construct: Kinases are expressed as either kinase domains or full length constructs; made in house
Nature of the assay: Kinase inhibition assay (33P transfer), Kdr. Particulars: read-out: KDR-1. The method in brief: as §1

The next assay has as its target T8, c-Met (Homo sapiens, UniProt P08581).
T8 construct: Kinases are expressed as either kinase domains or full length constructs; made in house
Nature of the assay: Kinase inhibition assay (33P transfer), c-Met. Particulars: Table 2, kinase inhibition class; read-out: Met-1. The method in brief:
as §2

Each structure is given as a SMILES string. Read-outs that look alike come from different tables or passages of the source.

T2 sequence (Q9Y243 whole entry, the tested form may be a part): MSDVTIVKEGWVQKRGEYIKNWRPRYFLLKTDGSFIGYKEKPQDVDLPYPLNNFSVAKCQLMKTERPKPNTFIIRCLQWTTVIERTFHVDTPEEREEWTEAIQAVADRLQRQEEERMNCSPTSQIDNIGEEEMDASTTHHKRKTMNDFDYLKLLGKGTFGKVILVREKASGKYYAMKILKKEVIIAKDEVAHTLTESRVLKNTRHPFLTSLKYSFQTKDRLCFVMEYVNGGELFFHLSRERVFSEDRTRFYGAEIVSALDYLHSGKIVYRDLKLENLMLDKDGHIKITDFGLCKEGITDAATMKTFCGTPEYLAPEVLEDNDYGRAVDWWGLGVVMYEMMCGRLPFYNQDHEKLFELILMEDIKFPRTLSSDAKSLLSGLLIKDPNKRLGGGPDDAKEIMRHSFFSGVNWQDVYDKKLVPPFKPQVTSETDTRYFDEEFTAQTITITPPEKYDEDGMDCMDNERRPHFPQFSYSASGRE
T7 sequence (P35968 20-1356, species assumed): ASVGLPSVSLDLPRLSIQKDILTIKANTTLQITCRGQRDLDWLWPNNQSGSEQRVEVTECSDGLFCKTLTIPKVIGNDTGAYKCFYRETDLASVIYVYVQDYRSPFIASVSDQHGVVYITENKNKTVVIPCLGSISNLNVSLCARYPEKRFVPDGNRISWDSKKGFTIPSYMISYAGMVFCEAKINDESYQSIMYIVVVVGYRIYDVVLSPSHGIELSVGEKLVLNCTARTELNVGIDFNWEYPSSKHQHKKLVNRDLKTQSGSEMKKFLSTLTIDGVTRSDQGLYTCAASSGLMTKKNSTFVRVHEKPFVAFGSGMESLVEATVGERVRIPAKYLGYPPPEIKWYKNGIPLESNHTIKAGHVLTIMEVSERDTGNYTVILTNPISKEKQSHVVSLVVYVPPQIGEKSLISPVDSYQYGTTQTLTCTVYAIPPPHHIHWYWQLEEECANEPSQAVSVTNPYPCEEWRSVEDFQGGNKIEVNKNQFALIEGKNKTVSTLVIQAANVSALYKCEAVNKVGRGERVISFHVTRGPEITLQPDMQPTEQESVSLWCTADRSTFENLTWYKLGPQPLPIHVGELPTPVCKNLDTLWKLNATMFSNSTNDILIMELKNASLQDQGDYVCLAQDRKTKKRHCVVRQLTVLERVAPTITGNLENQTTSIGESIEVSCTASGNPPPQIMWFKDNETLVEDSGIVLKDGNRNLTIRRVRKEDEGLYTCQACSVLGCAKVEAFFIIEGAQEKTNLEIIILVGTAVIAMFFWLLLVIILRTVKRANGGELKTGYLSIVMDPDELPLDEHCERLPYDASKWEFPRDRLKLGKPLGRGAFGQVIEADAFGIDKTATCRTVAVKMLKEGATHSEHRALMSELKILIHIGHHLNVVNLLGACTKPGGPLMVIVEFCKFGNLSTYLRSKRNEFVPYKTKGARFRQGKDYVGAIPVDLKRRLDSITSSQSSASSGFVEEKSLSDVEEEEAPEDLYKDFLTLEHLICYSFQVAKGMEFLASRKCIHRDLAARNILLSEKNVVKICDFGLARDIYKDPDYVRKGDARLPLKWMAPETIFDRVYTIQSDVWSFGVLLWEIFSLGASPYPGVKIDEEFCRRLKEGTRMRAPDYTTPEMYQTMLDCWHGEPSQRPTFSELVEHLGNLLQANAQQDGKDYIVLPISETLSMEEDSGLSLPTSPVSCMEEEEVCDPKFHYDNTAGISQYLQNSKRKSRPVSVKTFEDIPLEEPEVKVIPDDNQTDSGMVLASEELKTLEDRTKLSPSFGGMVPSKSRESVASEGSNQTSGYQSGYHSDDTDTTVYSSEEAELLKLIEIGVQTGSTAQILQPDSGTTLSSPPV
T8 sequence (P08581 25-1390): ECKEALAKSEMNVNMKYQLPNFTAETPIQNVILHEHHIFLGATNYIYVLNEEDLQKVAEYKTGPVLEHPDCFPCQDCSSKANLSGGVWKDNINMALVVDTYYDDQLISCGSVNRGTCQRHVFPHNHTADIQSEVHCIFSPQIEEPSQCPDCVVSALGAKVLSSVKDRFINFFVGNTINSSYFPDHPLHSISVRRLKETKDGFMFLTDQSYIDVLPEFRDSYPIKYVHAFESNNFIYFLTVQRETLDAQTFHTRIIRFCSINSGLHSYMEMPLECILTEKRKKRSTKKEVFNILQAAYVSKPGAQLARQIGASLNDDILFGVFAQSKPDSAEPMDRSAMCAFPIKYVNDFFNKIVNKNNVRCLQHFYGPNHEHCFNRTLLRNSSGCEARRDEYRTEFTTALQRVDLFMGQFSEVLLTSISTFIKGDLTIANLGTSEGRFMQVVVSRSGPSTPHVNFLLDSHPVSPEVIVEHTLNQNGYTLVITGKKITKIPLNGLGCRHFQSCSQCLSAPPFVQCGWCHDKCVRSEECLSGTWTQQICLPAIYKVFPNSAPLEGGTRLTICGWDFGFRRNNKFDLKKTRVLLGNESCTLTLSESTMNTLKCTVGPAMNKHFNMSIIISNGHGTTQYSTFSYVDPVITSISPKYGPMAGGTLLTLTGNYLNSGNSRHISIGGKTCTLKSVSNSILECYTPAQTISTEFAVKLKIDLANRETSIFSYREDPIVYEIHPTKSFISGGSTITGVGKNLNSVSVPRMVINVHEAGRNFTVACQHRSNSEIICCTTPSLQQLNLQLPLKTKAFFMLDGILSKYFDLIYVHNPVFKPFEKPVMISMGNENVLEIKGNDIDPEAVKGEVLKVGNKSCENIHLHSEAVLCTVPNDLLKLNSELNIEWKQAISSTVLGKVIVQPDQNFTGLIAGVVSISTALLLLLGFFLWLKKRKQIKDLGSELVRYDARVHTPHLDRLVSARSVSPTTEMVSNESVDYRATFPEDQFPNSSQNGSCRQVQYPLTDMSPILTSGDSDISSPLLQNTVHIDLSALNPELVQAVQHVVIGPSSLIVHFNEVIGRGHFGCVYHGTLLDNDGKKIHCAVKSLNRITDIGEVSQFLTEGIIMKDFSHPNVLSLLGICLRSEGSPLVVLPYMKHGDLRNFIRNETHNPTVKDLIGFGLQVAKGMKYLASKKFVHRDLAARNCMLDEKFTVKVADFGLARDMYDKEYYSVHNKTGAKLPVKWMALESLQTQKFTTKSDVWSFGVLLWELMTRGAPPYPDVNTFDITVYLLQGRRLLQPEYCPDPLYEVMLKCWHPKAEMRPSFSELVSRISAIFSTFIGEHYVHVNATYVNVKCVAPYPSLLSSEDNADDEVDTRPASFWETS
T4 sequence (Q02763 23-1124, species assumed): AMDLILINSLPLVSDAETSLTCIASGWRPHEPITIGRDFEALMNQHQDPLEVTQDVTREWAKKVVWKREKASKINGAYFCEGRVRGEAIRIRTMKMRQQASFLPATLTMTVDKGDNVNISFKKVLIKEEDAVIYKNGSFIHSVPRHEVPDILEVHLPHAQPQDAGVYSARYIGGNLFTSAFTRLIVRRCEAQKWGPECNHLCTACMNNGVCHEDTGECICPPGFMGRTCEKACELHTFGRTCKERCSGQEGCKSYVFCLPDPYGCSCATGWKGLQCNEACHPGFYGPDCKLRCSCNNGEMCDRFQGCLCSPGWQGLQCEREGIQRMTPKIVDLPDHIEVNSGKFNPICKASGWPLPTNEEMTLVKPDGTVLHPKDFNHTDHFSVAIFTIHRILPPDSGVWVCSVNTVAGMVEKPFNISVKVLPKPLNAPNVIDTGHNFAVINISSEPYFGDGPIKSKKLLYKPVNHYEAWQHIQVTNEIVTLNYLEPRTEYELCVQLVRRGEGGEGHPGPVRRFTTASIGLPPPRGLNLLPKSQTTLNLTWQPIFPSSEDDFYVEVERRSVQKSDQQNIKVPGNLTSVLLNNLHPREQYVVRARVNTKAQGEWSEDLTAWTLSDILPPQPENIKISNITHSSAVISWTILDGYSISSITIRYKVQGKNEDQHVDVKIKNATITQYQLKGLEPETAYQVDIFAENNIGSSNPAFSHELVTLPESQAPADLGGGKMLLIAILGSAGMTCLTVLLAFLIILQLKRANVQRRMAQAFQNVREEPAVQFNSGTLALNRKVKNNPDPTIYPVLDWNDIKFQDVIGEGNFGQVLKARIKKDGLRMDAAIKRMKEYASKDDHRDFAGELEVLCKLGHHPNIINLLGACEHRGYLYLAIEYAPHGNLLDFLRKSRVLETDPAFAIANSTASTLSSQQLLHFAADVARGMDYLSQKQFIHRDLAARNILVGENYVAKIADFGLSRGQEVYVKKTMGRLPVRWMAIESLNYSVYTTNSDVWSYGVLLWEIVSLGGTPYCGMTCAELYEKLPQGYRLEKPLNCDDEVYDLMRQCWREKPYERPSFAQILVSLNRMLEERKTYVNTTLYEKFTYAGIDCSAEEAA
T1 sequence (P06239 whole entry, species assumed, the tested form may be a part): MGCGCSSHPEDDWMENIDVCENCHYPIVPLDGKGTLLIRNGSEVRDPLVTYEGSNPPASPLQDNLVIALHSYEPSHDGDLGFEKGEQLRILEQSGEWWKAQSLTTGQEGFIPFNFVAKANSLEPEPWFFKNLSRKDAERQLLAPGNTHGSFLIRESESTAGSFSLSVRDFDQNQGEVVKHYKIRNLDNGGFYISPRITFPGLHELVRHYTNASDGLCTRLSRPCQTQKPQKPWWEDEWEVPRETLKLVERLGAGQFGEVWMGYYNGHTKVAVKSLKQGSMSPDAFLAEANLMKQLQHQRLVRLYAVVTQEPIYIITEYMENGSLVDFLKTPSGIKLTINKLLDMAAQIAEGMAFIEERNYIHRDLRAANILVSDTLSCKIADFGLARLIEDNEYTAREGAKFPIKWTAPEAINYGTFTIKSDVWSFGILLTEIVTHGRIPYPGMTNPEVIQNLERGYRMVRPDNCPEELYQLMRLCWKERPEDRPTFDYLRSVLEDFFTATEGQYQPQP

Consider `COc1cc(Nc2ncnc(-c3ccc(NCCCO)nc3)n2)cc(OC)c1OC` [Compound 497], for which the IC50 at Lck is 8.49 to 10.9 µM; on AKT it was > 10.9 µM; at Zap-70 it was > 10.9 µM; on Tek, > 10.9 µM; at Itk it was > 10.9 µM; on EGFR, > 10.9 µM. In addition, the results for the IC50 on Kdr and on c-Met were < 0.97 µM and > 10.9 µM, respectively.

In the case of `COc1cc(Nc2ncnc(-c3cccnc3NCCCN)n2)cc(OC)c1OC` [Compound 1078], the IC50 at Lck, on AKT, at Zap-70, at Tek, on Itk and on EGFR was > 10.9 µM throughout. For the same molecule, the IC50 at Kdr is 0.972 to 5.83 µM; on c-Met, > 10.9 µM.

Consider `O=c1[nH]c2ccccc2n1-c1ncnc(Nc2ccccc2[N+](=O)[O-])n1` [Compound 493], for which the IC50 at Lck was > 12.9 µM; on AKT, > 12.9 µM; at Zap-70 it was > 12.9 µM; at Tek, 6.87 to 10 µM; at Itk, > 12.9 µM; on EGFR it was > 12.9 µM. Also, the IC50 at Kdr was > 12.9 µM; at c-Met, 10 to 12.9 µM.

Take `COc1cc(OC)nc(Nc2ncnc(-n3c(=O)[nH]c4ccccc43)n2)n1` [Compound 491]: the IC50 on Lck was > 12.3 µM; at AKT, > 12.3 µM; on Zap-70, > 12.3 µM; on Tek, 1.09 to 6.55 µM; at Itk, > 12.3 µM; on EGFR, > 12.3 µM. For the same molecule, the IC50 on Kdr is 9.55 to 12.3 µM; on c-Met it was > 12.3 µM.

`Nc1ncnc(Nc2ccc3c(c2)OCO3)n1` [Compound 1025]: the IC50 was > 19.5 µM on Lck (Table 3); > 19.5 µM on AKT; 15.1 to 19.5 µM on Zap-70 (Table 3); > 19.5 µM on Tek; > 19.5 µM at Itk (Table 3); 15.1 to 19.5 µM at EGFR. The figures for the IC50 on Kdr (Table 3) and on c-Met were 10.4 to 15.1 µM and > 19.5 µM, respectively.

In the case of `COc1cc(Nc2ncnc(-c3c(O)n(C)c4ccccc34)n2)cc(OC)c1OC` [Compound 465], the IC50 on Lck (Table 3), on AKT, at Zap-70 (Table 3), on Tek, on Itk (Table 3) and at EGFR was > 11 µM throughout. The figures for the IC50 at Kdr (Table 3) and at c-Met were 0.982 to 5.89 µM and > 11 µM, respectively.

For the molecule `Nc1nc2ccccc2n1-c1ncnc(Nc2ccc(Cl)cc2)n1` [Compound 478], the IC50 on Lck, at AKT, at Zap-70, at Tek, on Itk and on EGFR was 1.18 to 7.11 µM throughout. Moreover, the IC50 at Kdr and at c-Met was 1.18 to 7.11 µM each time.

Consider `COc1cc(Nc2ncnc(-n3c(N[C@H](C)c4ccccc4)nc4ccccc43)n2)cc(OC)c1OC` [Compound 1034], for which the IC50 on Lck is 0.804 to 4.82 µM; at AKT it was > 9.04 µM; on Zap-70, > 9.04 µM; on Tek, > 9.04 µM; on Itk it was > 9.04 µM; on EGFR, > 9.04 µM. In addition, the IC50 is < 0.804 µM at Kdr and 7.03 to 9.04 µM at c-Met.

As to `COc1cc(Nc2ncnc(Nc3cccc4ncccc34)n2)cc(OC)c1OC` [Compound 695], the IC50 on Lck is < 0.989 µM; on AKT, > 11.1 µM; on Zap-70, > 11.1 µM; on Tek, 5.93 to 8.65 µM; on Itk, 0.989 to 5.93 µM; at EGFR, 5.93 to 8.65 µM. The results for the IC50 on Kdr and on c-Met were < 0.989 µM and > 11.1 µM, respectively.

On to `CC(C)(C)c1cc(Nc2ncnc(Nc3cccc(CC(=O)O)c3)n2)[nH]n1` [Compound 979], for which the IC50 is > 12.2 µM at Lck; > 12.2 µM on AKT; > 12.2 µM on Zap-70; > 12.2 µM at Tek; > 12.2 µM at Itk; 1.09 to 6.53 µM on EGFR. The IC50 on Kdr lay within 6.53 to 9.53 µM; on c-Met, 1.09 to 6.53 µM.

Regarding `O=c1[nH]c2ccccc2n1-c1ncnc(Nc2cccc([N+](=O)[O-])c2)n1` [Compound 467], the IC50 is > 12.9 µM at Lck (Table 3); > 12.9 µM on AKT; 6.87 to 10 µM at Zap-70 (Table 3); 6.87 to 10 µM at Tek; > 12.9 µM on Itk (Table 3); > 12.9 µM at EGFR. Further, the IC50 at Kdr (Table 3) is 1.15 to 6.87 µM; on c-Met, > 12.9 µM.

For `Nc1nc2ccccc2n1-c1ncnc(N2C(=O)c3ccccc3C2=O)n1` [Compound 653], the IC50 at Lck, at AKT, at Zap-70, at Tek, at Itk and on EGFR was > 12.6 µM throughout. The IC50 on Kdr and at c-Met was > 12.6 µM throughout.

In the case of `CC(C)(C)OC(=O)NCc1cccc(Nc2ncnc(Nc3cc(-c4ccccc4)n[nH]3)n2)c1` [Compound 986], the IC50 on Lck was > 9.81 µM; on AKT it was > 9.81 µM; at Zap-70 it was > 9.81 µM; at Tek, 7.63 to 9.81 µM; at Itk, 5.23 to 7.63 µM; on EGFR, 5.23 to 7.63 µM. Besides, the IC50 at Kdr and on c-Met was 0.872 to 5.23 µM throughout.

Take `O=c1[nH]c2ccccc2n1-c1ncnc(Nc2ccc(C(F)(F)F)cc2)n1` [Compound 505]: the IC50 was > 12.1 µM at Lck; > 12.1 µM at AKT; 9.4 to 12.1 µM on Zap-70; 6.45 to 9.4 µM at Tek; > 12.1 µM on Itk; > 12.1 µM at EGFR. Besides, the IC50 on Kdr and on c-Met was > 12.1 µM in each case.

In the case of `COc1cc(Nc2ncnc(Nc3nc(-c4ccccc4)cs3)n2)cc(OC)c1OC` [Compound 444], the IC50 at Lck (Table 3), at AKT, at Zap-70 (Table 3), on Tek, at Itk (Table 3) and on EGFR was > 10.3 µM in each case. The IC50 on Kdr (Table 3) and at c-Met was > 10.3 µM each time.
